Experimental data: patent publication US9982005B2, “Macrolides and methods of their preparation and use” (President and Fellows of Harvard College, priority 2013, dated 2018)
In brackets after ≈: the same amount, converted by molar mass. Like-named read-outs stand apart in the source and are kept apart here.

Key:
Format in all cases: cell-based
E. coli (MC4100) = assay: MIC, E. coli MC4100; settings: Escherichia coli
Text: (§1) We have collected MIC data for a total of 50 novel macrolides that this platform has produced against over 21 unique strains of B. subtilis, E. coli, S. aureus, S. pneumoniae, and H. influenzae, including several multidrug-resistant strains, with a special focus on macrolide resistant mechanisms (vide supra). Azithromycin was included as a control macrolide. CLSI standard procedures for broth dilution MIC determination were used. […] These genotypes can be constitutive or inducible. The finding that C4-epi (unnatural) isomers of the “azaketolide” macrolide class have enhanced activities relative to C4 natural isomers is very exciting.

[1] = system: S. aureus (Newman, clinical isolate); assay: MIC, S. aureus Newman; settings: Staphylococcus aureus
Text: as §1

S. aureus strains = assay: MIC against S. aureus strains (Table M7); settings: for MIC: Staphylococcus aureus
Procedure, shortened: (§2)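 Following CLSI guidelines, each compound was serially diluted in broth against the bacterial strain and the MIC recorded. Azithromycin was included in parallel as a comparator macrolide.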

K. pneumoniae strains = assay: MIC against K. pneumoniae strains (Table M8); settings: Klebsiella pneumoniae, K. pneumoniae 10031
E. coli strains = assay: MIC against E. coli strains (Table M7); settings: Escherichia coli, ATCC25922, E. coli ATCC 25922
Procedure, shortened: as §2

H. influenzae strains = assay: MIC against H. influenzae strains (Table M8); settings: Haemophilus influenzae
Procedure, shortened: as §2

S. pneumoniae strains = assay: MIC against S. pneumoniae strains (Tables M7, M8); settings: Streptococcus pneumoniae
Text: CLSI standard procedures for broth dilution MIC determination were used. […] These genotypes can be constitutive or inducible.

E. faecalis strains = assay: MIC against E. faecalis strains (Table M8); settings: Enterococcus faecalis, E. faecalis 29212
A. baumannii strains = assay: MIC against A. baumannii strains (Table M8); settings: for MIC: Acinetobacter baumannii, BAA747, A. baumannii BAA747-1
EC878 E. coli tolC = assay: broth dilution MIC, E. coli EC878; settings: Escherichia coli
Procedure, shortened: as §2

[2] = system: BS1723 B. subtilis BS168 WT wild type; assay: broth dilution MIC, B. subtilis BS1723; settings: Bacillus subtilis
Procedure, shortened: as §2

BS1725 B. subtilis ermC = assay: broth dilution MIC, B. subtilis BS1725; settings: Bacillus subtilis
Procedure, shortened: as §2

EC107 E. coli ATCC25922 = assay: broth dilution MIC, E. coli EC107; settings: Escherichia coli, read-out: MIC
Procedure, shortened: as §2

[3] = system: SA101 S. aureus ATCC29213; assay: broth dilution MIC, S. aureus SA101; settings: Staphylococcus aureus, ATCC29213, SA101 S. aureus ATCC29213; read-out: MIC
Procedure, shortened: as §2

EC882 E. coli imp = assay: broth dilution MIC, E. coli EC882; settings: Escherichia coli
Procedure, shortened: as §2

[4] = S. aureus (Neuman, clinical isolate), round 2
[5] = ATCC29213, S. aureus ATCC 29213, read-out: MIC S. aureus (ATCC 29213)
[6] = S. aureus 506, read-out: MIC S. aureus (506)
[7] = S. aureus 1708, read-out: MIC S. aureus (1708)
[8] = USA300, S. aureus USA300, read-out: MIC S. aureus (USA300)
[9] = H. influenzae 49247, read-out: MIC H. influenzae (49247)
[10] = H. influenzae 49766, read-out: MIC H. influenzae (49766)
[11] = S. pneumoniae 160, read-out: MIC S. pneumonae (160)
[12] = S. pneumoniae 1509, read-out: MIC S. pneumoniae (1509)
[13] = S. pneumoniae 1533, read-out: MIC S. pneumoniae (1533)
[14] = S. pneumoniae 1537, read-out: MIC S. pneumoniae (1537)
[15] = S. pneumoniae 49619, read-out: MIC S. pneumoniae (49619)
[16] = BS1723 B. subtilis BS168 WT wild type, read-out: MIC
[17] = S. aureus (Newman, clinical isolate), round 1

Row | Compound | MIC (E. coli (MC4100); round 2, read-out: MIC) [µg/mL] | MIC [1, 4] [µg/mL] | MIC (S. aureus strains; [5]) [µg/mL] | MIC (S. aureus strains; [6]) [µg/mL] | MIC (S. aureus strains; [7]) [µg/mL] | MIC (S. aureus strains; [8]) [µg/mL] | MIC (K. pneumoniae strains) [µg/mL] | MIC (E. coli strains) [µg/mL] | MIC (H. influenzae strains; [9]) [µg/mL] | MIC (H. influenzae strains; [10]) [µg/mL] | MIC (S. pneumoniae strains; [11]) [µg/mL] | MIC (S. pneumoniae strains; [12]) [µg/mL] | MIC (S. pneumoniae strains; [13]) [µg/mL] | MIC (S. pneumoniae strains; [14]) [µg/mL] | MIC (S. pneumoniae strains; [15]) [µg/mL] | MIC (E. faecalis strains) [µg/mL] | MIC (A. baumannii strains) [µg/mL] | MIC (EC878 E. coli tolC) [µg/mL] | MIC (BS1725 B. subtilis ermC; BS1725 B. subtilis ermC (+ery)) [µg/mL] | MIC (EC107 E. coli ATCC25922) [µg/mL] | further results
1 | CC[C@H]1OC(=O)[C@H](C)C(=O)[C@H](C)[C@@H](O[C@@H]2OC(C)CC(N(C)C)C2O)/C(C)=C/CN[C@H](C)[C@H]2N(CCCCn3cc(-c4cccc(N)c4)nn3)C(=O)O[C@]12C (stereo partly drawn) [FSM-30624] | > 32 | > 32 |  |  |  |  |  |  |  |  |  |  |  |  |  |  |  |  |  |  | 
2 | CC[C@H]1OC(=O)[C@H](C)C(=O)[C@H](C)[C@@H](O[C@@H]2OC(C)CC(N(C)C)C2O)[C@](C)(OC)CCN[C@H](C)[C@H]2N(CCCCn3cc(-c4cccc(N)c4)nn3)C(=O)O[C@]12C (stereo partly drawn) [FSM-30622] | > 32 | > 32 | > 32 | > 32 | > 32 | > 32 | > 32 | > 32 | > 32 | > 32 | > 32 | > 32 | > 32 | > 32 | > 32 | > 32 | > 32 |  |  |  | 
3 | CC[C@H]1OC(=O)[C@H](C)C(=O)[C@H](C)[C@@H](O[C@@H]2OC(C)CC(N(C)C)C2O)/C(C)=C/CN[C@H](C)[C@H]2N(CCCCn3cc(-c4ccccn4)nn3)C(=O)O[C@]12C (stereo partly drawn) [FSM-30625] | > 32 | > 32 |  |  |  |  |  |  |  |  |  |  |  |  |  |  |  |  |  |  | 
4 | CC[C@H]1OC(=O)[C@H](C)C(=O)[C@H](C)[C@@H](O[C@@H]2OC(C)CC(N(C)C)C2O)[C@](C)(OC)C[C@@H](C)CN[C@H](C)[C@H]2N(CCCCn3cc(-c4nccs4)nn3)C(=O)O[C@]12C (stereo partly drawn) [FSM-20708] |  |  | 2 (≈ 2.44 µM) | > 32 | 2 (≈ 2.44 µM) | 2 (≈ 2.44 µM) | 2 (≈ 2.44 µM) | 4 (≈ 4.88 µM) | 0.25 (≈ 0.305 µM) | 2 (≈ 2.44 µM) | 0.125 (≈ 0.152 µM) | 4 (≈ 4.88 µM) | > 32 | > 32 | 0.5 (≈ 0.61 µM) | 0.5 (≈ 0.61 µM) | 16 (≈ 19.5 µM) | 1 (≈ 1.22 µM) | 16 (≈ 19.5 µM) | 8 (≈ 9.76 µM) | MIC [2, 16]: 1 µg/mL (≈ 1.22 µM); MIC [3]: 2 µg/mL (≈ 2.44 µM); MIC (EC882 E. coli imp): 0.0625 µg/mL (≈ 0.0762 µM)
5 | CC[C@H]1OC(=O)[C@H](C)C(=O)[C@H](C)[C@@H](O[C@@H]2OC(C)CC(N(C)C)C2O)[C@](C)(OC)C[C@@H](C)CN[C@H](C)[C@H]2N(CCCCn3cc(-c4nc5ccccc5s4)nn3)C(=O)O[C@]12C (stereo partly drawn) [FSM-20711] |  |  | 4 (≈ 4.6 µM) | > 32 | 4 (≈ 4.6 µM) | 4 (≈ 4.6 µM) | 4 (≈ 4.6 µM) | 16 (≈ 18.4 µM) | 1 (≈ 1.15 µM) | 8 (≈ 9.19 µM) | 0.125 (≈ 0.144 µM) | > 32 | > 32 | > 32 | 0.5 (≈ 0.575 µM) | 1 (≈ 1.15 µM) | > 32 | 0.5 (≈ 0.575 µM) | 32 (≈ 36.8 µM) | 16 (≈ 18.4 µM) | MIC [2, 16]: 2 µg/mL (≈ 2.3 µM); MIC [3]: 2 µg/mL (≈ 2.3 µM); MIC (EC882 E. coli imp): 0.0312 µg/mL (≈ 0.0359 µM)
6 | CC[C@H]1OC(=O)[C@H](C)C(=O)[C@H](C)[C@@H](O[C@@H]2OC(C)CC(N(C)C)C2O)[C@](C)(OC)C[C@@H](C)CN[C@H](C)[C@H]2N(CCCCCn3cc(-c4ccccn4)nn3)C(=O)O[C@]12C (stereo partly drawn) [FSM-40350] |  |  |  |  |  |  |  |  |  |  |  |  |  |  |  |  |  |  |  |  | MIC (E. coli (MC4100); round 1, read-out: MIC): 16 µg/mL (≈ 19.3 µM); MIC [1, 17]: 2 µg/mL (≈ 2.42 µM)
7 | CC[C@H]1OC(=O)[C@H](C)[C@@H](O[C@H]2C[C@@](C)(OC)[C@@H](O)[C@H](C)O2)[C@H](C)[C@@H](O[C@@H]2O[C@H](C)C[C@H](N(C)C)[C@H]2O)[C@](C)(O)C[C@@H](C)C(=O)[C@H](C)[C@@H](O)[C@]1(C)O [Erythromycin, erythromycin, reference compound] |  |  | 0.5 (≈ 0.681 µM) | > 32 | > 32 | > 32 | 8 (≈ 10.9 µM) | > 32 | 2 (≈ 2.73 µM) | 8 (≈ 10.9 µM) | 2 (≈ 2.73 µM) | > 32 | > 32 | > 32 | ≤ 0.0625 | 2 (≈ 2.73 µM) | 32 (≈ 43.6 µM) | 2 (≈ 2.73 µM) | > 32 | > 32 | MIC S. aureus (ATCC 29213) (S. aureus strains; S. aureus ATCC 29213): 0.25 µg/mL (≈ 0.341 µM); MIC (S. aureus strains; S. aureus 183, read-out: MIC S. aureus (183)): > 32 µg/mL; MIC [2]: 0.125 µg/mL (≈ 0.17 µM); MIC A. baumannii (BAA747-1) (A. baumannii strains; A. baumannii BAA747-1): >32 µg/mL; MIC (BS1725 B. subtilis ermC; BS1725 B. subtilis ermC (−ery)): > 32 µg/mL; MIC [3]: 0.5 µg/mL (≈ 0.681 µM); MIC (EC882 E. coli imp): 2 µg/mL (≈ 2.73 µM)
8 | CC[C@H]1OC(=O)CC(=O)[C@H](C)[C@@H](O[C@@H]2OC(C)CC(N(C)C)C2O)[C@](C)(OC)C[C@@H](C)CN[C@H](C)[C@H]2N(CCCCn3cc(-c4ccccn4)nn3)C(=O)O[C@]12C (stereo partly drawn) [FSM-56139] | 32 (≈ 40 µM) | 16 (≈ 20 µM) |  |  |  |  |  |  |  |  |  |  |  |  |  |  |  |  |  |  | 
9 | CC[C@H]1OC(=O)[C@H](Cc2ccccc2)C(=O)[C@H](C)[C@@H](O[C@@H]2OC(C)CC(N(C)C)C2O)[C@](C)(OC)C[C@@H](C)CN[C@H](C)[C@H]2N(CCCCn3cc(-c4cccc(N)c4)nn3)C(=O)O[C@]12C (stereo partly drawn) [FSM-56158] | 32 (≈ 35.4 µM) | 8 (≈ 8.85 µM) |  |  |  |  |  |  |  |  |  |  |  |  |  |  |  |  |  |  | 
10 | CC[C@H]1OC(=O)[C@H](C)C(=O)[C@H](C)[C@@H](O[C@@H]2OC(C)CC(N(C)C)C2O)[C@](C)(OC)C[C@@H](C)CN[C@H](C)[C@H]2N(CCCCn3cc(-c4cccnn4)nn3)C(=O)O[C@]12C (stereo partly drawn) [FSM-20710] |  |  | 2 (≈ 2.45 µM) | > 32 | 2 (≈ 2.45 µM) | 4 (≈ 4.91 µM) | 4 (≈ 4.91 µM) | 8 (≈ 9.82 µM) | 0.5 (≈ 0.613 µM) | 2 (≈ 2.45 µM) | 0.5 (≈ 0.613 µM) | 16 (≈ 19.6 µM) | > 32 | > 32 | 0.5 (≈ 0.613 µM) | 0.5 (≈ 0.613 µM) | 16 (≈ 19.6 µM) | 1 (≈ 1.23 µM) | 32 (≈ 39.3 µM) | 8 (≈ 9.82 µM) | MIC [2, 16]: 2 µg/mL (≈ 2.45 µM); MIC [3]: 2 µg/mL (≈ 2.45 µM); MIC (EC882 E. coli imp): 0.0625 µg/mL (≈ 0.0767 µM)
11 | CC[C@H]1OC(=O)[C@H](C)C(=O)[C@H](C)[C@@H](O[C@@H]2OC(C)CC(N(C)C)C2O)[C@](C)(OC)C[C@@H](C)CN[C@H](C)[C@H]2N(CCCn3cc(-c4ccccn4)nn3)C(=O)O[C@]12C (stereo partly drawn) [FSM-40348] |  |  |  |  |  |  |  |  |  |  |  |  |  |  |  |  |  |  |  |  | MIC (E. coli (MC4100); round 1, read-out: MIC): > 32 µg/mL; MIC [1, 17]: 8 µg/mL (≈ 10 µM)
